Reference: patent US20150359854A1 (HUMAN MATRIX SCIENCES, LLC, priority 2012, published 2015)
“Also recorded” adds a separate entry of the source.

Legend:
[1] = test system: human aortic SMCs (AoSMCs); assay: Quantitative assay of [3H]-valine-labeled insoluble elastin; type: cell-based; settings: 24-hour treatment, 0.5 to 100 nmol/L insulin
Protocol: Cells were plated in 35-mm dishes at a density of 100,000 cells per dish and were grown to confluency. Two microcuries [3H]-valine per milliliter fresh medium supplemented with 2% FBS was added 2 hours before the indicated treatments. At the end of each experiment, the conditioned medium was collected and subjected to immunoprecipitation using anti-tropoelastin antibody. The cell layers were washed with PBS and incubated using radioimmunoprecipitation lysis buffer for 10 minutes on ice. After centrifugation, the supernatants were collected and subjected to immunoprecipitation using anti-tropoelastin antibody. The remaining pellets containing extracellular matrix were scraped and boiled in 500 μL 0.1 N NaOH for 30 minutes to solubilize all matrix components except the cross-linked elastin. Final results (counts per minute) reflecting the total amount of [3H]-valine-labeled insoluble elastin in individual cultures were normalized per their DNA contents (assessed using the Qiagen DNEASY® (DNA isolation) Tissue Kit) and expressed as percentage of control values.

[2] = test system: human aortic SMCs (AoSMCs); assay: Immunocytochemistry and morphometry of elastic fibers in AoSMC cultures; type: cell-based; settings: 24-hour treatment, 0.5 to 100 nmol/L insulin, confluent AoSMCs, 2% FBS
Excerpt: Human aortic SMCs (AoSMCs) were propagated from small fragments of aortic media collected from autopsy. Guidelines for the protection of human subjects of the US Department of Health and Human Services and of the Declaration of Helsinki were followed in obtaining tissues for this investigation. Cells migrating from the cultured explants of aortic media were routinely passaged (up to three times) via trypsinization using 0.2% trypsin-0.02% EDTA, and were maintained in DMEM supplemented with 5% FBS and 1% antibiotic-antimycotic mix. The second and third passages of cells that migrated from the original explants of aortic media were routinely probed with antibodies recognizing the SMC-specific α-actin to monitor the preservation of the SMC phenotype. All cells were initially plated at 100,000 cells per dish for immediate confluency so they would begin extracellular matrix production. The cell cultures committed to particular experiments were then transferred to DMEM containing either 2% FBS or to serum-free medium before initiation of particular treatments.
At the end of treatments, confluent cultures of AoSMCs were fixed in cold 100% methanol at −20° C. for 30 minutes, and blocked with 1% normal goat serum for 1 hour. The cultures were then incubated for 1 hour with 10 μg/mL polyclonal antibodies to tropoelastin and/or with 10 μg/mL monoclonal antibody to SMC-specific α-actin. All cultures were then incubated for another hour with the respective fluorescein-conjugated secondary antibodies (fluorescein-conjugated goat anti-rabbit or anti-mouse). Nuclei were counterstained with red-fluorescent propidium iodide or blue-fluorescent DAPI. The cultures were then mounted in ethanol and examined using a microscope (Eclipse E1000; Nikon Instruments, Inc., Melville, N.Y.) attached to a cooled CCD camera (Retiga EX; QImaging Corp., Vancouver, BC, Canada) and a computer-generated morphometric analysis system (Image-Pro Plus software; Media Cybernetics, Inc., Bethesda, Md.). In each analyzed group, 50 low-power fields from three separate cultures were analyzed, and the areas occupied by immunodetectable elastic fibers were expressed as a percentage of the entire analyzed field.

S-Gal/EBP = assay: Association of tropoelastin with S-Gal/EBP chaperone (Western blot, co-immunoprecipitation, double immunostaining); type: cell-based, human; settings: 20 minutes, 10 nmol/L insulin
Protocol: Cultures fixed for 30 minutes in cold 100% methanol were then blocked with 1% glycine for 15 minutes, followed by 2% bovine serum albumin with 0.1% Triton X-100 for another hour at room temperature. They were finally exposed for 1 hour to the mixture of 5 μg/mL polyclonal anti-S-Gal/EBP and 5 μg/mL monoclonal anti-tropoelastin antibodies. All cultures were then incubated for another hour with the mixture of fluorescein-conjugated and rhodamine-conjugated secondary antibodies. Nuclei were counterstained with DAPI. At the end of all treatments, cells from quadruplicate cultures in each experimental group were lysed using NP40 cell lysis buffer (Invitrogen Corp.). Thirty micrograms of protein extracts from each sample was suspended in standard sample buffer, resolved on 4% to 12% gradient SDS-PAGE gels, transferred to nitrocellulose membranes, and subjected to Western blotting using antibodies. At the end of indicated treatments, the cultured cells were lysed as described, and 300 μL aliquots of cell extracts containing […] were incubated at 4° C. for 3 hours with the aliquots of protein G bound DYNABEADS® (Invitrogen Corp.) that were conjugated with either rabbit polyclonal anti-tropoelastin, goat polyclonal anti-Glut10, or rabbit polyclonal anti-S-Gal antibodies. The beads carrying the final immunoprecipitation products were then washed with PBS, resuspended in sample buffer, and boiled for 5 minutes. The released proteins were then resolved on SDS-PAGE gel and subjected to Western blotting using indicated antibodies.

[3] = molecular target: Insulin-Like Growth Factor-1 Receptor (IGFR-1R) (Homo sapiens, UniProt P08069); settings: cited from earlier work
tropoelastin mRNA = assay: RT-PCR assay of tropoelastin mRNA; type: cell-based, human; settings: 10 nmol/L insulin
Protocol: At the end of the treatments, total RNA was extracted from quadruplicate cultures in each experimental group using the RNEASY® (RNA isolation) Mini Kit. One microgram total RNA from each sample was added to one-step RT-PCR (One-Step RT-PCR Kit; Qiagen, Inc.). The reactions were set up in a total volume of 25 μL. The reverse transcription step was performed for elastin and 18S ribosomal RNA reactions at 50° C. for 30 minutes, followed by 15 minutes at 95° C. The elastin PCR reaction using sense primer 5′[…]-3′ (SEQ ID NO 1) and antisense primer 5′[…]3′ (SEQ ID NO 2). The products were analyzed using ethidium bromide staining and densitometry-based image analysis using an optical system (Gel Doc 1000; Bio-Rad Laboratories, Inc., Hercules, Calif.). The amount of tropoelastin mRNA was standardized relative to the amount of 18S ribosomal RNA and expressed as percentage of control values.

[4] = test system: fibronectin or collagen I; assay: Immunodetection of deposited fibronectin and collagen I; type: cell-based, human; settings: insulin-treated cultures of both cell types
[5] = test system: cultures derived from aortic adventitia, primarily fibroblasts; assay: Elastic fiber deposition in cultures derived from aortic adventitia; type: cell-based, human

insulin
levels of metabolically labeled insoluble elastin [1]: up-regulated
production of immunodetected elastic fibers [2]: dose-dependent increase; also recorded: induce new elastogenesis in a dose-dependent manner
S-Gal/EBP coimmunoprecipitated using anti-tropoelastin antibody vs untreated (S-Gal/EBP): significantly more
basic levels of intracellular S-Gal/EBP or tropoelastin (Western blot) (S-Gal/EBP): did not demonstrate any increase; also recorded: do not demonstrate any increase
co-localization of tropoelastin and S-Gal/EBP (double immunostaining) (S-Gal/EBP): reveal co-localization
lower affinity of IGFR-1R for insulin compared to the insulin receptor [3]: 1000 ×
time of peak up-regulation of tropoelastin mRNA (tropoelastin mRNA): 8 h
tropoelastin mRNA level (tropoelastin mRNA; in 4 hours (time course)): significant up-regulation
tropoelastin mRNA level (tropoelastin mRNA; 8-hour treatment, serum-free): induced significant up-regulation
deposition of immunodetectable fibronectin or collagen I [4]: did not reveal any up-regulation
deposition of new elastic fibers in aortic adventitia cultures ([5]; 1 nmol/L insulin, primarily fibroblasts): stimulated deposition of new elastic fibers
deposition of immunodetected elastic fibers in aortic media and adventitia cultures ([5]; 48-hour treatment with 10 nmol/L insulin): deposit multiple immunodetected elastic fibers
